Measured values reported in ChEMBL document CHEMBL3751718, “Synthesis and biological evaluation of lipid-like 5-(2-hydroxyethyl)-4-methyl-1,3-thiazole derivatives as potential anticancer and antimicrobial agents” (Medchemcomm, 2015).
Active and inactive are the calls of the source. The calls are words filed in the database; no cut-off is given here.

Experiments:
[1] = test system: Escherichia coli; assay: Antibacterial activity against Escherichia coli MSCL 332 after 24 hrs by broth dilution method; format: functional; details: MSCL 332, 24 h
[2] = test system: Staphylococcus aureus; assay: Antibacterial activity against Staphylococcus aureus MSCL 334 at 10 mg/ml after 24 hrs by agar dish diffusion method; format: functional; details: for zone of inhibition at 10000 µg/mL: MSCL 334, 24 h, read-out: DIZ
[3] = test system: HT-1080; assay: Induction of nitric oxide production in human HT1080 cells by Griess assay; format: functional; parameters: concentration or dose not given beside the values
[4] = test system: Bacillus cereus; assay: Bactericidal activity against Bacillus cereus MSCL 330 incubated for 24 hrs followed by colony transfer to agar plates for 24 hrs by colony counting based assay; format: functional; details: MSCL 330, 24 h, read-out: MBC99.9
[5] = test system: Aspergillus niger; assay: Antifungal activity against Aspergillus niger MSCL 324 at 5 mg/ml after 48 hrs by agar dish diffusion method; format: functional; details: for zone of inhibition at 5000 µg/mL: MSCL 324, 48 h, read-out: DIZ
[6] = test system: Candida albicans; assay: Antifungal activity against Candida albicans MSCL 378 at 5 mg/ml after 48 hrs by agar dish diffusion method; format: functional; details: for zone of inhibition at 5000 µg/mL: MSCL 378, 48 h, read-out: DIZ
[7] = test system: Staphylococcus aureus; assay: Antibacterial activity against Staphylococcus aureus MSCL 334 at 5 mg/ml after 24 hrs by agar dish diffusion method; format: functional; details: for zone of inhibition at 5000 µg/mL: MSCL 334, 24 h, read-out: DIZ
[8] = test system: Escherichia coli; assay: Antibacterial activity against Escherichia coli MSCL 332 at 5 mg/ml after 24 hrs by agar dish diffusion method; format: functional; details: for zone of inhibition at 5000 µg/mL: MSCL 332, 24 h, read-out: DIZ
[9] = test system: Staphylococcus aureus; assay: Bactericidal activity against Staphylococcus aureus MSCL 334 incubated for 24 hrs followed by colony transfer to agar plates for 24 hrs by colony counting based assay; format: functional; details: MSCL 334, 24 h, read-out: MBC99.9
[10] = Cytotoxicity against human HT1080 cells assessed as cell viability at 6.25 to 50 ug/ml by crystal violet-based assay; format: functional; details: HT-1080, read-out: LC50 (the source's name)
[11] = test system: Pseudomonas aeruginosa; assay: Antibacterial activity against Pseudomonas aeruginosa MSCL 331 at 5 mg/ml after 24 hrs by agar dish diffusion method; format: functional; details: for zone of inhibition at 5000 µg/mL: MSCL 331, 24 h, read-out: DIZ
[12] = test system: Aspergillus niger; assay: Fungicidal activity against Aspergillus niger MSCL 324 incubated for 24 hrs followed by colony transfer to agar plates for 24 hrs by colony counting based assay; format: functional; details: MSCL 324, 24 h, read-out: MFC99.9
[13] = test system: MG-22A; assay: Induction of nitric oxide production in mouse MG-22A cells by Griess assay; format: functional; parameters: concentration or dose not given beside the values
[14] = test system: MG-22A; assay: Cytotoxicity against mouse MG-22A cells assessed as cell viability at 6.25 to 50 ug/ml by crystal violet-based assay; format: functional; details: read-out: LC50 (the source's name)
[15] = test system: Escherichia coli; assay: Antibacterial activity against Escherichia coli MSCL 332 at 10 mg/ml after 24 hrs by agar dish diffusion method; format: functional; details: for zone of inhibition at 10000 µg/mL: MSCL 332, 24 h, read-out: DIZ
[16] = test system: Candida albicans; assay: Fungicidal activity against Candida albicans MSCL 378 incubated for 24 hrs followed by colony transfer to agar plates for 24 hrs by colony counting based assay; format: functional; details: MSCL 378, 24 h, read-out: MFC99.9
[17] = test system: Bacillus cereus; assay: Antibacterial activity against Bacillus cereus MSCL 330 after 24 hrs by broth dilution method; format: functional; details: MSCL 330, 24 h
[18] = test system: Aspergillus niger; assay: Antifungal activity against Aspergillus niger MSCL 324 after 24 hrs by broth dilution method; format: functional; details: MSCL 324, 24 h
[19] = test system: Candida albicans; assay: Antifungal activity against Candida albicans MSCL 378 after 24 hrs by broth dilution method; format: functional; details: MSCL 378, 24 h
[20] = Cytotoxicity against mouse NIH/3T3 cells assessed as cell viability at 6.25 to 50 ug/ml by neutral red-based assay; details: nih3t3
[21] = test system: MG-22A; assay: Cytotoxicity against mouse MG-22A cells assessed as cell viability at 6.25 to 50 ug/ml after 72 hrs by MTT assay; format: functional; details: read-out: LC50 (the source's name)
[22] = test system: Proteus mirabilis; assay: Antibacterial activity against Proteus mirabilis MSCL 590 at 10 mg/ml after 24 hrs by agar dish diffusion method; format: functional; details: for zone of inhibition at 10000 µg/mL: MSCL 590, 24 h, read-out: DIZ
[23] = test system: Pseudomonas aeruginosa; assay: Antibacterial activity against Pseudomonas aeruginosa MSCL 331 at 10 mg/ml after 24 hrs by agar dish diffusion method; format: functional; details: for zone of inhibition at 10000 µg/mL: MSCL 331, 24 h, read-out: DIZ
[24] = test system: Candida albicans; assay: Antifungal activity against Candida albicans MSCL 378 at 10 mg/ml after 48 hrs by agar dish diffusion method; format: functional; details: for zone of inhibition at 10000 µg/mL: MSCL 378, 48 h, read-out: DIZ
[25] = test system: Escherichia coli; assay: Bactericidal activity against Escherichia coli MSCL 332 incubated for 24 hrs followed by colony transfer to agar plates for 24 hrs by colony counting based assay; format: functional; details: MSCL 332, 24 h, read-out: MBC99.9
[26] = Cytotoxicity against human HT1080 cells assessed as cell viability at 6.25 to 50 ug/ml after 72 hrs by MTT assay; format: functional; details: HT-1080, 72 h, read-out: LC50 (the source's name)
[27] = test system: Proteus mirabilis; assay: Antibacterial activity against Proteus mirabilis MSCL 590 at 5 mg/ml after 24 hrs by agar dish diffusion method; format: functional; details: for zone of inhibition at 5000 µg/mL: MSCL 590, 24 h, read-out: DIZ
[28] = test system: Bacillus cereus; assay: Antibacterial activity against Bacillus cereus MSCL 330 at 10 mg/ml after 24 hrs by agar dish diffusion method; format: functional; details: for zone of inhibition at 10000 µg/mL: MSCL 330, 24 h, read-out: DIZ
[29] = test system: Bacillus cereus; assay: Antibacterial activity against Bacillus cereus MSCL 330 at 5 mg/ml after 24 hrs by agar dish diffusion method; format: functional; details: for zone of inhibition at 5000 µg/mL: MSCL 330, 24 h, read-out: DIZ
[30] = test system: Aspergillus niger; assay: Antifungal activity against Aspergillus niger MSCL 324 at 10 mg/ml after 48 hrs by agar dish diffusion method; format: functional; details: for zone of inhibition at 10000 µg/mL: MSCL 324, 48 h, read-out: DIZ
[31] = test system: Staphylococcus aureus; assay: Antibacterial activity against Staphylococcus aureus MSCL 334 after 24 hrs by broth dilution method; format: functional; details: MSCL 334, 24 h

Molecule | MIC [1] | zone of inhibition at 10000 µg/mL [2] | Activity [3] | MBC [4] | zone of inhibition at 5000 µg/mL [5] | zone of inhibition at 5000 µg/mL [6] | zone of inhibition at 5000 µg/mL [7] | zone of inhibition at 5000 µg/mL [8] | MBC [9] | CC50 [10] | Activity [13] | CC50 [14] | zone of inhibition at 10000 µg/mL [15] | LC50 [20] | CC50 [21] | zone of inhibition at 10000 µg/mL [24] | CC50 [26] | zone of inhibition at 10000 µg/mL [28] | zone of inhibition at 5000 µg/mL [29] | zone of inhibition at 10000 µg/mL [30] | also measured
CCCCCCCCCCOCCc1sc[n+](C)c1C.[I-] | 32 µg/mL | 25 mm | 150% | 64 µg/mL | 12 mm | 29 mm | 25 mm | 15 mm | 4 µg/mL | 0.47 µM | 150% | 0.23 µM | 20 mm | 37.6 µM | 1.17 µM | 33 mm | 0.94 µM | 30 mm | 29 mm | 15 mm | zone of inhibition at 5000 µg/mL [11]: 9 mm; MFC [12]: 32 µg/mL; MFC [16]: 32 µg/mL; MIC [17]: 32 µg/mL; MIC [18]: 16 µg/mL; MIC [19]: 16 µg/mL; zone of inhibition at 10000 µg/mL [22]: 20 mm; zone of inhibition at 10000 µg/mL [23]: 15 mm; MBC [25]: 32 µg/mL; zone of inhibition at 5000 µg/mL [27]: 17 mm; MIC [31]: 2 µg/mL
CCCCCCCOCCc1sc[n+](C)c1C.[I-] | 256 µg/mL | 21 mm | 200% | > 256 µg/mL | – | 13 mm | 20 mm | 11 mm | 64 µg/mL | 15.6 µM | 100% | 20.8 µM | 16 mm | 467.3 µM | 18.2 µM | 20 mm | 15.6 µM | 13 mm | 12 mm | 11 mm | diameter of the inhibition zone (DIZ) [5]: inactive; diameter of the inhibition zone (DIZ) [11]: inactive; MFC [12]: > 256 µg/mL; MFC [16]: > 256 µg/mL; MIC [17]: > 256 µg/mL; MIC [18]: > 256 µg/mL; MIC [19]: 256 µg/mL; diameter of the inhibition zone (DIZ) [22]: inactive; diameter of the inhibition zone (DIZ) [23]: inactive; MBC [25]: 256 µg/mL; diameter of the inhibition zone (DIZ) [27]: inactive; MIC [31]: 16 µg/mL
CCCCCCCCCCCOCCc1scnc1C | – | 13 mm | 100% | – | 9 mm | 14 mm | 10 mm | 9 mm | – | 53.8 µM | 100% | 47.1 µM | 10 mm | 47.1 µM | 53.8 µM | 15 mm | 50.5 µM | 11 mm | 10 mm | 15 mm | diameter of the inhibition zone (DIZ) [11]: inactive; zone of inhibition at 10000 µg/mL [22]: 10 mm; zone of inhibition at 10000 µg/mL [23]: 10 mm; zone of inhibition at 5000 µg/mL [27]: 8 mm
CCCCCCCCCC[n+]1csc(CCOCCCCCCC)c1C.[I-] | 32 µg/mL | 22 mm | 250% | 32 µg/mL | 17 mm | 20 mm | 21 mm | 15 mm | 4 µg/mL | 3.93 µM | 350% | 0.19 µM | 20 mm | 19.6 µM | 1.96 µM | 21 mm | 3.93 µM | 21 mm | 20 mm | 19 mm | zone of inhibition at 5000 µg/mL [11]: 16 mm; MFC [12]: 16 µg/mL; MFC [16]: 16 µg/mL; MIC [17]: 8 µg/mL; MIC [18]: 16 µg/mL; MIC [19]: 16 µg/mL; zone of inhibition at 10000 µg/mL [22]: 12 mm; zone of inhibition at 10000 µg/mL [23]: 20 mm; MBC [25]: 64 µg/mL; zone of inhibition at 5000 µg/mL [27]: 11 mm; MIC [31]: 1 µg/mL
GENTAMICIN | – | – | – | – | – | – | – | – | – | – | – | – | – | – | – | – | – | – | – | – | inhibition zone (IZ) [2]: 32 mm; diameter of the inhibition zone (DIZ) [5]: inactive; diameter of the inhibition zone (DIZ) [6]: inactive; inhibition zone (IZ) [7]: 30 mm; inhibition zone (IZ) [8]: 27 mm; inhibition zone (IZ) [11]: 31 mm; inhibition zone (IZ) [15]: 30 mm; inhibition zone (IZ) [22]: 31 mm; inhibition zone (IZ) [23]: 32 mm; diameter of the inhibition zone (DIZ) [24]: inactive; inhibition zone (IZ) [27]: 28 mm; inhibition zone (IZ) [28]: 36 mm; inhibition zone (IZ) [29]: 35 mm; diameter of the inhibition zone (DIZ) [30]: inactive
